The source of these data is ChEMBL document CHEMBL5465560, “Selectivity Literature for EUbOPEN Chemogenomic Library” (2024).

Assay [1] concerns the target T1, Serine/threonine-protein kinase Nek3 (Homo sapiens) (UniProt P51956).
T1 sequence (whole entry): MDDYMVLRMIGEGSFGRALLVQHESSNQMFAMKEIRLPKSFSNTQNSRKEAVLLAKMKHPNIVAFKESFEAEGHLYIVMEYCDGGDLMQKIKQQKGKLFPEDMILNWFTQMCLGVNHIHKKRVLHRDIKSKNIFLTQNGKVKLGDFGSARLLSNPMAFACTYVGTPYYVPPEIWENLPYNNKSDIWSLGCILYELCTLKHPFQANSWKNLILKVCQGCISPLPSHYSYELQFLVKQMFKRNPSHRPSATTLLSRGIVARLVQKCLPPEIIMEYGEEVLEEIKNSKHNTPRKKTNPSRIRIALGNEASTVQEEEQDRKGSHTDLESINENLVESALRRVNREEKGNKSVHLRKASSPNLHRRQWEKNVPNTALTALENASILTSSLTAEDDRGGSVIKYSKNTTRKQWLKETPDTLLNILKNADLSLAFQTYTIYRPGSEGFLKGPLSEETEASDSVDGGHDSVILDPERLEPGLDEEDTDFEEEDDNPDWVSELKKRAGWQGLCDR
The assay is described as follows: Selectivity interaction (KinomeScan (DiscoverX)) EUB0001079a NEK3. The following applies: at 1 µM.

The target in assay [2] is Serine/threonine-protein kinase PLK1 (Homo sapiens, UniProt P53350). The assay is described as follows: Selectivity interaction (KinomeScan (DiscoverX)) EUB0000092b PLK1. The settings on record: at 10 µM.
Serine/threonine-protein kinase PLK1, sequence (P53350 whole entry, the tested form may be a part): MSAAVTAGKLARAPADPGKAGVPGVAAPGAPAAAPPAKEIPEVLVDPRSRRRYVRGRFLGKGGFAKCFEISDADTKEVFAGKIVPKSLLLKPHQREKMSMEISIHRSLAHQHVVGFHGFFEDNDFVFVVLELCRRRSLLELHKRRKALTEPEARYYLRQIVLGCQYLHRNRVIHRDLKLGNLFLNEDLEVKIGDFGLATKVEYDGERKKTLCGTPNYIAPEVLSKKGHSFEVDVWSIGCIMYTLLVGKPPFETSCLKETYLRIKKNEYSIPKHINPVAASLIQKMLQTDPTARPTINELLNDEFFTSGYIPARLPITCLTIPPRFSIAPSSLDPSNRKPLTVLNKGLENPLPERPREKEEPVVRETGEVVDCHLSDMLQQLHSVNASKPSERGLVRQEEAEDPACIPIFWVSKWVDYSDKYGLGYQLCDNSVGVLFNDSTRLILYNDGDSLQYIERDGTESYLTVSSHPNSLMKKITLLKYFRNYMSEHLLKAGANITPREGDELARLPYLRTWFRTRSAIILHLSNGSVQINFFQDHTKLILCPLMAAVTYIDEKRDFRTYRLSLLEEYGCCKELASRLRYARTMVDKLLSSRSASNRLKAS
In assay [3] the target is Polycomb protein EED (Homo sapiens) (UniProt O75530). The assay is described as follows: Selectivity interaction (PWWP, WD40, and Tudor domain panel (DSLS measurements, literature)) EUB0000270b EED.
The target in assay [4] is T2, RAC-alpha serine/threonine-protein kinase (Homo sapiens, UniProt P31749). The experiment in a line: Selectivity interaction (KinomeScan (DiscoverX)) EUB0000045b AKT1.
T2 sequence (P31749 whole entry): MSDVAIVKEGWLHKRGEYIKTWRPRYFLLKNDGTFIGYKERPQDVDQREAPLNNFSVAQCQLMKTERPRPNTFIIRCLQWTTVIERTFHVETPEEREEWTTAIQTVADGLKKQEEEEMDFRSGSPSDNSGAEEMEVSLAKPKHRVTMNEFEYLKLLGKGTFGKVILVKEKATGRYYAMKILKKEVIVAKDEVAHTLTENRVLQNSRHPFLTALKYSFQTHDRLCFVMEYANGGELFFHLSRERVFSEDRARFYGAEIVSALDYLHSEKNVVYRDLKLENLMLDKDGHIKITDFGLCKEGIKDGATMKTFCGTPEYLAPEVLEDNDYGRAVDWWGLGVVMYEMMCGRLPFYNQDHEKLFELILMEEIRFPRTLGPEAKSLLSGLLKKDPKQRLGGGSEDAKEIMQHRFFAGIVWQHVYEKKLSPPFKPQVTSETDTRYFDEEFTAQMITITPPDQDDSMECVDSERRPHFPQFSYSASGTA
Assay [5] concerns the target Tyrosine-protein kinase JAK1 (Homo sapiens, UniProt P23458). The experiment in a line: Selectivity interaction (KinomeScan (DiscoverX)) EUB0000666a JAK1. The following applies: at 10 µM.
The target of assay [6] is Tyrosine-protein kinase Lck (Homo sapiens, UniProt P06239). The assay is described as follows: Selectivity interaction (KinomeScan (DiscoverX)) EUB0000666a LCK. The following applies: at 10 µM.
Tyrosine-protein kinase Lck, sequence (P06239 2-509 limits assumed): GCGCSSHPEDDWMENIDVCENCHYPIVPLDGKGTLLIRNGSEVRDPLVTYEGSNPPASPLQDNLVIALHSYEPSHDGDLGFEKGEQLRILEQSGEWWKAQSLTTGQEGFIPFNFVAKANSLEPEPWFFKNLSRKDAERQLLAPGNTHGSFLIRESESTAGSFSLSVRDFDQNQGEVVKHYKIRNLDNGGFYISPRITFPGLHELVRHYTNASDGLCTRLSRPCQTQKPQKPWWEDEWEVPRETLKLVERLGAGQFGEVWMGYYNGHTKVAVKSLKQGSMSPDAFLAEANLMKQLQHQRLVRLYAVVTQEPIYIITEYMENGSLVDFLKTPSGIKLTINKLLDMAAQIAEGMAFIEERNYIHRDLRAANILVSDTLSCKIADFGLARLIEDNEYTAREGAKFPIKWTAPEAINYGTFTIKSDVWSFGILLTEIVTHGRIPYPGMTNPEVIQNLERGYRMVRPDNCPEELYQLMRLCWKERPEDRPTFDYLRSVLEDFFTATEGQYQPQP
Assay [7] deals with Leucine-rich repeat serine/threonine-protein kinase 2 (Homo sapiens), Q5S007 [G2019S]. The experiment in a line: Selectivity interaction (Adapta Assay) EUB0001632a LRRK2. The settings on record: at 10 µM.
Assay [8] has as its target Homeodomain-interacting protein kinase 2 (Homo sapiens, UniProt Q9H2X6). The experiment in a line: Selectivity interaction (KinomeScan (DiscoverX)) EUB0001619a HIPK2. The following applies: at 1 µM.
Assay [9] has as its target T2, RAC-alpha serine/threonine-protein kinase. The assay is described as follows: Selectivity interaction (ActivX KiNativ screen (ex vivo kinase selectivity in human PBMCs)) EUB0001619a AKT1. It counts as cell-based. The settings on record: PBMC, at 1 µM.
Assay [10] has as its target T3, Ephrin type-A receptor 1 (Homo sapiens) (UniProt P21709).
T3 sequence (whole entry): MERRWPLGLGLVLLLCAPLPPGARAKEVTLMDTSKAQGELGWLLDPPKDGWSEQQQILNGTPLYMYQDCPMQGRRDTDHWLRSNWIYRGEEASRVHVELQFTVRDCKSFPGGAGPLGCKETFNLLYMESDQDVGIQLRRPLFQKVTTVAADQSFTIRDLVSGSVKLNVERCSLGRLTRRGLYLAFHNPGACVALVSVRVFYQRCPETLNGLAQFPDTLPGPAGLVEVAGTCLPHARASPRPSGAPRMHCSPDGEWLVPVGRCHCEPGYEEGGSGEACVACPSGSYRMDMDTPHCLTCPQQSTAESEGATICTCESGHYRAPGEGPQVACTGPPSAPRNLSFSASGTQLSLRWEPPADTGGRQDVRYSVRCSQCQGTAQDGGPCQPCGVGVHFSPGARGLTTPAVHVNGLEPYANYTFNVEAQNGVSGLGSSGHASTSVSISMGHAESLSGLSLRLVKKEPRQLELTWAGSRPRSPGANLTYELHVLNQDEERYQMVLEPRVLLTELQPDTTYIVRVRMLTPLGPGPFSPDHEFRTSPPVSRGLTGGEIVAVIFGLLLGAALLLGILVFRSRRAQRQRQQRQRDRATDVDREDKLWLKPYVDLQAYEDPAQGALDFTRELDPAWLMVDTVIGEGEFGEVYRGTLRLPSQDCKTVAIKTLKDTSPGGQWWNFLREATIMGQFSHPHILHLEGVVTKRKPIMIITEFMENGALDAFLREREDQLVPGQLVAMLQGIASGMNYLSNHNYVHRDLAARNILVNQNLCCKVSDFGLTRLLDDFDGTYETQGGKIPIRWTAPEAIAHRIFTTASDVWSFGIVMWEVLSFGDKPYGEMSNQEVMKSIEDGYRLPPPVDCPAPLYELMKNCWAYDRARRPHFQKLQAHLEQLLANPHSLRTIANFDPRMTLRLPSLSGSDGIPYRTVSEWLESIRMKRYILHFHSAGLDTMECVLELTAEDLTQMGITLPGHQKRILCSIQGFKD
The experiment in a line: Selectivity interaction (ActivX KiNativ screen (ex vivo kinase selectivity in human PBMCs)) EUB0001619a EPHA1. In kind it is cell-based. The settings on record: PBMC, at 1 µM.

Assay [11] addresses T4, Protein kinase C iota type (Homo sapiens) (UniProt P41743).
T4 sequence (whole entry): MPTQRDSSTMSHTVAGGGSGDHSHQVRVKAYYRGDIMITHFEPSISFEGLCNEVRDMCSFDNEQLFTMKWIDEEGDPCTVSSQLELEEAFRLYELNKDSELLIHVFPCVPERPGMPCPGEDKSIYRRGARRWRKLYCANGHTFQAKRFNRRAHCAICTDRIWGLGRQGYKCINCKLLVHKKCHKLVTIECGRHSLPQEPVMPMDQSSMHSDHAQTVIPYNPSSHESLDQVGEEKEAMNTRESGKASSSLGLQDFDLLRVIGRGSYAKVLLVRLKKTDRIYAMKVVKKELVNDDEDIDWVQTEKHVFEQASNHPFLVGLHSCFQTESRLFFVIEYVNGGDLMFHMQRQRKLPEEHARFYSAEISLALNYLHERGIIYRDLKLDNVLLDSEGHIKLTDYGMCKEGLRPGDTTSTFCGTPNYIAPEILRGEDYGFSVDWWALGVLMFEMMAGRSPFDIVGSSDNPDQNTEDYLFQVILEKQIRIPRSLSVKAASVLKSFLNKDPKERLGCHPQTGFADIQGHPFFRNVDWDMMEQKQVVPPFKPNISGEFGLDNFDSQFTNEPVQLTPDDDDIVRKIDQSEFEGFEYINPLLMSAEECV
The experiment in a line: Selectivity interaction (Kinase panel (KiNativ target engagement assay in Jurkat cells)) EUB0001635a PRKCI. In kind it is cell-based. The settings on record: Selectivity number of off-targets 0.0, Selectivity number of targets 233.0, Source Knowledge https://www.sciencedirect.com/science/article/pii/S2451945619300674?via%3Dihub, at 1 µM.

Assay [12] deals with Serine/threonine-protein kinase MARK1 (Homo sapiens) (UniProt Q9P0L2). The experiment in a line: Selectivity interaction (Kinase panel (KiNativ target engagement assay in Jurkat cells)) EUB0001635a MARK1. It counts as cell-based. The following applies: at 1 µM.
Serine/threonine-protein kinase MARK1 (Homo sapiens), sequence (Q9P0L2 whole entry, looked up): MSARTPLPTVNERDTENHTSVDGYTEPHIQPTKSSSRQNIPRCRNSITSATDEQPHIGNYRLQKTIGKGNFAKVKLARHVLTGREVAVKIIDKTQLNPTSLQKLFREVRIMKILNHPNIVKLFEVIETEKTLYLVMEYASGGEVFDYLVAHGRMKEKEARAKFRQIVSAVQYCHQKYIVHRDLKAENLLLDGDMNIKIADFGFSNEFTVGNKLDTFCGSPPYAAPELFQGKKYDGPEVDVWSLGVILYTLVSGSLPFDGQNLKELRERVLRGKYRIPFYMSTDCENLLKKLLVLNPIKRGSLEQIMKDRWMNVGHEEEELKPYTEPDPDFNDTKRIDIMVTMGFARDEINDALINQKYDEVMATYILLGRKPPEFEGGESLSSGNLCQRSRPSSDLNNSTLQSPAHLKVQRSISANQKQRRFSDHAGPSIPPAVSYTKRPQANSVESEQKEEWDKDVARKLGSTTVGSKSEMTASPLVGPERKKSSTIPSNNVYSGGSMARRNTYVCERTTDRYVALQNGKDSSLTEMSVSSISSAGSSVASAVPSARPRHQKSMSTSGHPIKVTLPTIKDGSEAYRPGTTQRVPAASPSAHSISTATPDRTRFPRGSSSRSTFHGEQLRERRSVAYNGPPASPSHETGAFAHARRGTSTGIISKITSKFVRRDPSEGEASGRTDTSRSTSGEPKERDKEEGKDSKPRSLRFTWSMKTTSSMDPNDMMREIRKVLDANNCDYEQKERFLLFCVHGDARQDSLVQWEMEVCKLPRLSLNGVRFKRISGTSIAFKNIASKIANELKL
Assay [13] has as its target T2, RAC-alpha serine/threonine-protein kinase. The assay is described as follows: Selectivity interaction (KinomeScan (DiscoverX)) EUB0000618a AKT1. The following applies: at 10 µM.

Homeodomain-interacting protein kinase 2, sequence (Q9H2X6 whole entry, looked up): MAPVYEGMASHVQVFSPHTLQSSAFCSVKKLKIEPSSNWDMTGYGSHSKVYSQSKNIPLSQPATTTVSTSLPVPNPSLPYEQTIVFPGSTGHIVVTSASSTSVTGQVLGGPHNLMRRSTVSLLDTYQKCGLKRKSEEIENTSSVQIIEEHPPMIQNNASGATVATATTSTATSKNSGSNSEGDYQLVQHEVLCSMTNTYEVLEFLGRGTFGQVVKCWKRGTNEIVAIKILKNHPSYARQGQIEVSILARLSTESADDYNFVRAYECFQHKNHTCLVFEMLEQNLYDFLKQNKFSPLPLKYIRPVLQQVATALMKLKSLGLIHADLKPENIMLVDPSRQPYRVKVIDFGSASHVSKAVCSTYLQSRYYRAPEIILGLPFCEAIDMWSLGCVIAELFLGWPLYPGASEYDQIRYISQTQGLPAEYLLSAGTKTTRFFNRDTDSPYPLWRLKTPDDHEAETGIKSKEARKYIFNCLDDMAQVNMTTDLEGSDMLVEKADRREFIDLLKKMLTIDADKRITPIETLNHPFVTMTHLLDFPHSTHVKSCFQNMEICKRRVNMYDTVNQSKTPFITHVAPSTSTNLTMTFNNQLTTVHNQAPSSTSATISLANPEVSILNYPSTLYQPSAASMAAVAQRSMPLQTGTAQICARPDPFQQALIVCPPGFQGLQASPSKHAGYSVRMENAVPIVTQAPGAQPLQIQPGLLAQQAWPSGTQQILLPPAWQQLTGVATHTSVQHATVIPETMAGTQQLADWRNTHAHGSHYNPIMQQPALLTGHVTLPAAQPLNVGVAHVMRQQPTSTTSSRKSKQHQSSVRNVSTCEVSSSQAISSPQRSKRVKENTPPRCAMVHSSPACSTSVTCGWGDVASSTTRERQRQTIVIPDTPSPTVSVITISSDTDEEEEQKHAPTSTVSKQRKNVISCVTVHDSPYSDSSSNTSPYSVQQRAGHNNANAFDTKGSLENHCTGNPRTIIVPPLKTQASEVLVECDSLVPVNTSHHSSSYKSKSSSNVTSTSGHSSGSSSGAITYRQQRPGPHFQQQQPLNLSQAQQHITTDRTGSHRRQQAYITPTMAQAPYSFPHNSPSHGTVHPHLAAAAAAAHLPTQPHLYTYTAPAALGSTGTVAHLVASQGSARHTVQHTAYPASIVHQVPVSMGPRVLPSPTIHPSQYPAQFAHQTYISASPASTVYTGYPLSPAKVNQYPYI
Tyrosine-protein kinase JAK1, sequence (P23458 whole entry): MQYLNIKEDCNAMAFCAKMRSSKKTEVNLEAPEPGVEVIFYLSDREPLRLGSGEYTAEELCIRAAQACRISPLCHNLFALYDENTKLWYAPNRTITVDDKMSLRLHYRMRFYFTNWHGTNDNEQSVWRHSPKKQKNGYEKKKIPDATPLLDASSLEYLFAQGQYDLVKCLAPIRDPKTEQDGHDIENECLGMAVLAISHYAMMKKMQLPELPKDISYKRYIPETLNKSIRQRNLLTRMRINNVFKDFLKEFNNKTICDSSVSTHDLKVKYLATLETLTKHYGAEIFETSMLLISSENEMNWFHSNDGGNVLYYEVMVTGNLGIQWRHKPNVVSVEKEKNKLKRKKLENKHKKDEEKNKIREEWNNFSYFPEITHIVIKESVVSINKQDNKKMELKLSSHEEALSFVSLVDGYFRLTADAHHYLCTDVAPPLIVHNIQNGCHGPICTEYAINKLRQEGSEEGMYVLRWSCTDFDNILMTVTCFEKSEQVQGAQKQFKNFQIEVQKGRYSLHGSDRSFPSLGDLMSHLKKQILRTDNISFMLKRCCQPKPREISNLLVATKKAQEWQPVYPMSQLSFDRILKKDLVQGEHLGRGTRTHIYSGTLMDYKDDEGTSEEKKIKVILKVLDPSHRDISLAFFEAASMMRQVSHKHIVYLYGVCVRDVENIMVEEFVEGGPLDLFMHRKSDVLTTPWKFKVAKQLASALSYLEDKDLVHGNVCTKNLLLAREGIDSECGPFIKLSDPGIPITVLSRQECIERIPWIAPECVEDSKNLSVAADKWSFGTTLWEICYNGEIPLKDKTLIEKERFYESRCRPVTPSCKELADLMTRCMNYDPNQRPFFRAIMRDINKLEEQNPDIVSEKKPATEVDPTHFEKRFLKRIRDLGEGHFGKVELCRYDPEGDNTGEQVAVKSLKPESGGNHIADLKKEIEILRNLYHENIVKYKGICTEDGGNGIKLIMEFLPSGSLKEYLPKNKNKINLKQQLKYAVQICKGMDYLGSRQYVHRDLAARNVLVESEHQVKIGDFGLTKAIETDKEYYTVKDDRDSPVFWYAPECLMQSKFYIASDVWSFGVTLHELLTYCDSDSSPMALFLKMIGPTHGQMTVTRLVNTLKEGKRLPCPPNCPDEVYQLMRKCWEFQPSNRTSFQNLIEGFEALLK

In assay [1], `Nc1cnc(N2CCc3cc(S(=O)(=O)Nc4c(F)cc(Cl)cc4F)cc(N4CCCC4=O)c32)nc1` [TP-020n] registered a % of control of 100%.

The compound `CCC(=O)N1CCN(c2ccc(-n3c(=O)ccc4cnc5ccc(-c6cnc7ccccc7c6)cc5c43)cc2C(F)(F)F)CC1` registered a % of control in [2] of 85%.

For `Cc1cc(CN)cc(C)c1-c1ncn(C)c1-c1cncn1C`, the dTagg in assay [3] was found to be 0.2 K.

In the case of `C=CC(=O)Nc1cc(-n2c(=O)ccc3cnc4ccc(-c5ccc(NS(C)(=O)=O)cc5)cc4c32)ccc1C`, the % of control in assay [4] (at 1 µM) is 12%; in assay [4] (at 10 µM) it was 100%.

For `O=C(NOC[C@H](O)CO)c1ccc(F)c(F)c1Nc1ccc(I)cc1F`, the % of control was 100% in [5] and 88% in assay [6].

With `Cn1cc(-n2cnc3c(NCc4nc5cc(Cl)c(Cl)cc5[nH]4)nc(N4CCOCC4)nc32)cn1`, the % of inhibition in assay [7] came to 95%.

In assay [8], `N#Cc1cccc(-c2c[nH]c3ncnc(N4CCOCC4)c23)c1` had a % of control of 65%. In addition, the % of inhibition in assay [9] was -6%; in assay [10] it was -3%.

`C=CC(=O)Nc1ccc(C(=O)Nc2[nH]nc3c2CN(C(=O)N[C@H](CN(C)C)c2ccccc2)C3(C)C)cc1`: the % of engagement in assay [11] was 9.5%; in assay [12], 8.7%.

In assay [13], `O[C@H]1CC[C@H](Nc2ncc3nc(Nc4c(F)cc(F)cc4F)n([C@H]4CCOC4)c3n2)CC1` showed a % of control of 72%.
